The source of these data is ChEMBL document CHEMBL3784964, “Targeting the trehalose utilization pathways of Mycobacterium tuberculosis” (Medchemcomm, 2016).

Experiment [1] deals with Mycobacterium tuberculosis. Kind of experiment: Inhibition of Mycobacterium tuberculosis antigen 85C mycolyltransferase activity at 100 ug/ml incubated for 30 mins by scintillation counting method in presence of [14C]-trehalose relative to control.
Experiment [2] relates to Mycobacterium tuberculosis. Kind of experiment: Antimycobacterial activity against Mycobacterium tuberculosis H37Ra ATCC 25177. In kind it is functional.
Experiment [3] concerns Mycobacterium tuberculosis. Kind of experiment: Antimycobacterial activity against Mycobacterium tuberculosis H37Rv by microdilution method. In kind it is functional. For orientation: In broth dilution the organism is exposed to a series of concentrations in liquid medium.
Experiment [4] is described as follows: Inhibition of Mycobacterium tuberculosis antigen 85C mycolyltransferase activity incubated for 30 mins by scintillation counting method in presence of [14C]-trehalose.
Experiment [5] can be described thus: Inhibition of recombinant Mycobacterium tuberculosis H37Rv N-terminal His-tagged glgE expressed in Escherichia coli T7 Rosetta cells using MESG as substrate measured every 5 sec for 10 mins by PNP enzyme coupled assay.
The test system of experiment [6] is Mycobacterium tuberculosis. Kind of experiment: Antimycobacterial activity against Mycobacterium tuberculosis H37Rv by 2-fold broth dilution method. In kind it is functional.
The nature of experiment [7]: Competitive inhibition of recombinant Mycobacterium smegmatis trehalose synthase using DNPGlc as substrate by Dixon plot analysis. More on the design: species or system Mycolicibacterium smegmatis.
The subject of experiment [8] is Mycobacterium tuberculosis. Kind of experiment: Antimycobacterial activity against Mycobacterium tuberculosis H37Rv. In kind it is functional.
Experiment [9] is described as follows: Inhibition of Mycobacterium tuberculosis antigen 85C acyltransferase activity preincubated with enzyme by UV-vis spectrophotometric analysis.
Experiment [10] deals with Mycobacterium tuberculosis. Kind of experiment: Antimycobacterial activity against Mycobacterium tuberculosis incubated for 96 hrs by resazurin microtiter assay. In kind it is functional. In general terms: Alamar Blue is a resazurin reagent that responds to reducing activity.
Experiment [11] can be described thus: Inhibition of Mycobacterium tuberculosis antigen 85C mycolyltransferase activity using trehalose as substrate measured every 20 sec for 30 mins by 4-methylumbelliferyl butyrate fluorescence assay.
In experiment [12] the test system is Mycobacterium tuberculosis. Kind of experiment: Antimycobacterial activity against Mycobacterium tuberculosis H37Rv mc26206 incubated for 96 hrs by resazurin microtiter assay. Format: functional. The following applies: H37Rv mc26206, 96 h.

Usually inhibition stands for the change of the read-out against control, counted positive when it falls. A word on the MIC: it is the least concentration at which growth counts as inhibited. Low readings indicate a more susceptible organism, high ones a less susceptible organism. The term IC50 denotes the midpoint of a concentration-inhibition curve. The Ki is a measure of affinity in units of concentration, obtained from inhibition or displacement.

Values after ≈ are worked out from the molar mass of the structure shown.

As for `[N-]=[N+]=NC[C@H]1O[C@H](O[C@H]2O[C@H](CO)[C@@H](O)[C@H](O)[C@H]2O)[C@H](O)[C@@H](O)[C@@H]1O`, the inhibition in experiment [1] is 60%. For `CCCCCCCCCCNC[C@H]1O[C@H](O[C@H]2O[C@H](CNCCCCCCCCCC)[C@@H](O)[C@H](O)[C@H]2O)[C@H](O)[C@@H](O)[C@@H]1O`, in experiment [2], the MIC came to 1.3 µg/mL (≈ 2.09 µM). As for `CCc1sc(NC(=O)c2c(F)c(F)c(F)c(F)c2F)c(C(=O)OC(C)C)c1C`, the MIC in experiment [3] was found to be 1 µM (≈ 0.421 µg/mL). On to `CCCCCCCCS(=O)(=O)OCCN1C(=O)c2ccccc2C1=O`, for which the IC50 in experiment [4] worked out at 4.3 µM.

In the case of `CCCCCCCCCCCCNC[C@H]1O[C@H](O[C@H]2O[C@H](CNCCCCCCCCCCCC)[C@@H](O)[C@H](O)[C@H]2O)[C@H](O)[C@@H](O)[C@@H]1O`, the MIC in [2] came to 8 µg/mL (≈ 11.8 µM).

For `OC[C@H]1N[C@H](CO)[C@@H](O[C@H]2O[C@H](CO)[C@@H](O)[C@H](O)[C@H]2O)[C@@H]1O`, the Ki in [5] was 237 µM. Compound `CCOC(=O)c1c(NC(=O)c2c(F)c(F)c(F)c(F)c2F)sc(C(N)=O)c1C` showed an MIC in experiment [3] of 0.5 µM (≈ 0.211 µg/mL). The compound `CC(C)=CCC/C(C)=C/CNCCNC1C2CC3CC(C2)CC1C3` (stereo not drawn) [SQ109] had an MIC in experiment [6] of 1.5 µg/mL (≈ 4.54 µM).

In the case of `CCCCC(CC)CNC[C@H]1O[C@H](O[C@H]2O[C@H](CNCC(CC)CCCC)[C@@H](O)[C@H](O)[C@H]2O)[C@H](O)[C@@H](O)[C@@H]1O` (stereo partly drawn), the MIC in [2] was determined as 32 µg/mL (≈ 56.7 µM).

Turning to `OC[C@H]1NC[C@H](O)[C@@H](O)[C@@H]1O` [DUVOGLUSTAT], the Ki in experiment [7] worked out at 250 nM. Regarding `c1ccc(CNC23CC4CC(CC(C4)C2)C3)cc1`, it took 10 µM (≈ 2.41 µg/mL) to inhibit growth in experiment [3] (MIC). In turn, `CCCn1cnc2cc(NCc3ccc(Cl)cc3Cl)ccc21` yielded an MIC in experiment [8] of 16 µM. With `COC(=O)CC[C@H]1O[C@@H](OC)[C@@H](O)[C@@H]1O`, in [9], half-maximal inhibition (IC50) was put at 25 mM.

`CCCC1CCc2c(sc(N)c2C#N)C1` (stereo not drawn) gave an MIC in [10] of 100 µM (≈ 22 µg/mL). The compound `CN1CCN(Cc2cc(-c3ccc(Cl)cc3)n(-c3ccc(Cl)cc3)c2-c2ccccc2)CC1` yielded an MIC in [8] of 1.5 µg/mL.

Regarding `CCOC(=O)c1c(NC(=O)SC[C@H]2O[C@@H](O)[C@@H](O)[C@@H]2O)sc2c1CCCC2`, in experiment [11], the affinity, expressed as Ki, was 18.2 µM. `CCCCCCCCS(=O)(=O)NC[C@H]1O[C@H](O[C@H]2O[C@H](CNS(=O)(=O)CCCCCCCC)[C@@H](O)[C@H](O)[C@H]2O)[C@H](O)[C@@H](O)[C@@H]1O`: the MIC in experiment [2] turned out to be 16 µg/mL (≈ 23.1 µM). `O=C(Nc1ccccc1)O/N=C1\N[C@H](CO)[C@@H](O)[C@H](O)[C@H]1O`: the Ki in experiment [7] was 2100 nM.

`CCCCCCCCNC[C@H]1O[C@H](O[C@H]2O[C@H](CNCCCCCCCC)[C@@H](O)[C@H](O)[C@H]2O)[C@H](O)[C@@H](O)[C@@H]1O`: the MIC in experiment [2] worked out at 4 µg/mL (≈ 7.08 µM). Compound `O=c1c2ccccc2[se]n1-c1ccccc1` [EBSELEN] displayed an MIC in experiment [12] of 20 µg/mL (≈ 72.9 µM). As for `COC(=O)c1c(NC(=O)c2c(F)c(F)c(F)c(F)c2F)sc2c1CCCCC2`, it took 1 µM (≈ 0.419 µg/mL) to inhibit growth in experiment [3] (MIC). With `OC[C@@H]1[C@@H](O)[C@H](O)C2[C@H](O)[C@@H](O)CN21` (stereo partly drawn), in experiment [7], the Ki was 2500 nM.

`O=C(Nc1ccc(F)c(F)c1F)NC12CC3CC(CC(C3)C1)C2` came in with an MIC in [8] of 0.5 µg/mL.
